Measured values published in patent US10278931B2, “Composition for treatment of inflammatory bowel disease and atopic dermatitis” (INNOPHARMASCREEN INC., priority 2015, dated 2019).

How the values were obtained:
[1] = target: T1, human recombinant caspase-1 (Homo sapiens, UniProt P29466); assay: Recombinant caspase-1 activity assay (kit); type: biochemical; conditions: caspase-1 assay kit
T1 sequence (P29466 120-404): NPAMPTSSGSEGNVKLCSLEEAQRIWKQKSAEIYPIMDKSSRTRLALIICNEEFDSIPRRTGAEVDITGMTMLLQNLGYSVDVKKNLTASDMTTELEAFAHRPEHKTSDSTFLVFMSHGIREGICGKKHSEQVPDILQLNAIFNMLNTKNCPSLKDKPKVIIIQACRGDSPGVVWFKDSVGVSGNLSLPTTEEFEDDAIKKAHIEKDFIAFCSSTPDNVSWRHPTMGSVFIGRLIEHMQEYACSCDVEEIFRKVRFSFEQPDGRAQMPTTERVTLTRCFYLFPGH
Description: (4) Caspase-1 assay: Recombinant caspase-1 and a drug were allowed to react, and then activity measurement was performed using a caspase-1 assay kit (R&D Systems Inc., Minneapolis, Minn., USA).
Recombinant caspase-1 and a drug were allowed to react, and then activity was measured using a caspase-1 assay kit (R&D Systems Inc., Minneapolis, Minn., USA).

caspase-1 = target: T2, caspase-1 (Homo sapiens, UniProt P29466); assay: Caspase-1 assay using HMC-1 cell extracts; type: cell-based
T2 construct: a caspase-1 assay was conducted using cell extracts; endogenous in cells; host or cells: HMC-1 (human mast cells)
T2 sequence (P29466 120-297 limits assumed): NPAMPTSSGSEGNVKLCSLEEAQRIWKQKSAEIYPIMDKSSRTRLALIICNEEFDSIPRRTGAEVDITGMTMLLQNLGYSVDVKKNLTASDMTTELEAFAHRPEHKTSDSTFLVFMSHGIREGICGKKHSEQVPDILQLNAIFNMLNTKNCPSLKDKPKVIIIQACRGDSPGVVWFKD
T2 sequence (P29466 317-404 limits assumed): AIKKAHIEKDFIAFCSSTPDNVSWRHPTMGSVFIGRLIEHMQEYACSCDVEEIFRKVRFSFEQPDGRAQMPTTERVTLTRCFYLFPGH

DSS-induced animal model = assay: DSS-induced inflammatory bowel disease (enteritis) model; type: in vivo, C57BL/6 mice
Description: Six-week-old female SPF (Specific pathogen-free) C57BL/6 mice were purchased from DuPont Biotech. The mice were allowed to freely ingest a feed and water after an acclimation period of 1 week in an animal room of Hoseo University Safety Evaluation Center maintained at temperature of 21±3° C., humidity of 50±20%, and light/darkness cycle of 12 h/12 h. All procedures in the present animal experiment were conducted after approved by the Animal Experimental Ethics Committee of Hoseo University (HTRC-15-19, and HTRC-16-22(2)).
Dextran sodium sulfate (cat no 160110 by Mpbio. corn) as a colitis inducer was diluted to 3% concentration in drinking water and orally administered to mice to induce enteritis. The mice were divided into 6 groups and DW was administered to the animals of a control, and 1.0 mg/kg and 10 mg/kg of the test material were orally administered to the animals of the experimental groups once a day for […]. Sulfasalazine (100 mg/kg) dissolved in crude olive oil was orally administered once a day to the animals of a positive control. In acute cases, disease progression levels were examined after 5 days of administration. In chronic cases, disease progression levels were examined 15 days and 30 days after the 5 days of administration (reference: Toxicology Reports 2 (2015) 10391045-Caryophyllene attenuates dextran sulfate sodium-induced colitis in mice via modulation of gene expression associated mainly with colon inflammation).
Body weights were measured once for 5 days or more during the test period. The measured weights were quantified as 0 point if there was no difference compared with the normal control, 1 point for weight loss rate of 15%, 2 points for 510%, 3 points for 1015%, and 4 points for >15%. Feces observation was performed to examine the incidence of diarrhea, and the results thereof were quantified as scores (0, normal stool; 1, mildly soft stool; 2, very soft stool; 3, very soft stool (no regular shape); 4, watery stool).
Rectal tissues and blood were collected from 5 individuals for each of the autopsy times. Yuhan ketamine 50® (Yuhan Corporation, Korean) and Rompun (Bayer, USA) were mixed in a ratio of 3:1, and then used to anesthetize animals via muscular injection. Each anesthetized animal was subjected to laparotomy to collect blood from the abdominal artery, and after blood collection, the abdominal artery was cut and subjected to venesection and death to collect rectal tissue. The length and weight of the collected tissue were measured to calculate weight per 1 cm of the tissue. Some of the collected tissues were used in biopsy, and some thereof were frozen in liquid nitrogen and stored at −70° C. before analysis. […]

HaCat cells = assay: Cytotoxicity (MTT-assay) in HaCat cells; type: cell-based, human
Description: (§1) (1) Cell culture: A human skin cell line (HaCat cells) was cultured in RPMI containing 10% FBS at 37° C. and 5% CO2. Candidate materials were dissolved in DMSO, and then filtered using a 0.22 μm filter. The resulting candidate materials were diluted with DMSO and the HaCat cells were treated therewith.
(2) Cytotoxicity (MTT-assay): After stabilizing HaCat cells (3×10^5 cells/ml) for 1 hour, they were treated with candidate materials variously beginning from a concentration of 10 μM, followed by treatment with Poly (I:C) for 8 hours. Then, the medium was replaced by a fresh medium, 5 mg/ml of an MTT solution was then added thereto, and the mast cells were incubated at 37° C. for 4 hours. 250 DMSO was added to the HaCat cells, MTT formazan was extracted therefrom, and absorbance of each well was measured at 540 nm using an ELISA reader.

HMC-1 cells = assay: Cytotoxicity (MTT-assay) in HMC-1 cells; type: cell-based, human; conditions: 10 μM
Description: as §1, with “mast” for “skin”, “(HMC-1)” for “(HaCat cells)”, “an IMDM supplemented with” for “RPMI containing”, “HMC-1” for “HaCat”
[…] After culturing, the medium was replaced by a fresh medium, 5 mg/ml of an MTT solution was then added thereto, and the mast cells were incubated at 37° C. for 4 hours. 250 DMSO was added to the mast cells, MTT formazan was extracted therefrom, and absorbance of each well was measured at 540 nm using an ELISA reader.

[2] = test system: TSLP secretion from human mast cells (HMC-1 cells); assay: TSLP secretion ELISA in PMACI-stimulated mast cells; type: cell-based; conditions: PMACI-stimulated HMC-1 cells, ELISA
Description: as §1, with “mast” for “skin”, “(HMC-1)” for “(HaCat cells)”, “an IMDM supplemented with” for “RPMI containing”, “HMC-1” for “HaCat”
(3) Enzyme-linked immunosorbent assay (ELISA): Mast cells (3×10^6 cells/ml) were stabilized for 1 hour, and then treated with 0.1 μM, 1 μM, and 10 μM of candidate materials, followed by treatment with PMACI for 8 hours. The mast cells were centrifuged to obtain supernatants. To measure the amount of TSLP secreted from the cells, ELISA was used. The ELISA was performed in 96-well plates coated with 1 μg/well of TSLP capture Ab. The coated plates were washed twice with PBS. The cells were treated with PBS containing 10% FBS for 2 hours. Thereafter, the cells were washed with PBS containing 0.05% Tween-20 (Sigma), and recombinant TSLP was used to draw a standard curve. Subsequently, the plates were exposed to a biotinylated-TSLP antibody, Avidin peroxidase, an ARTS substrate containing 30% H2O2, and then measured at 405 nm.

[3] = test system: balb/c mice with DNCB-induced atopic dermatitis; assay: DNCB-induced atopic dermatitis model; type: in vivo; conditions: 0.1% dexamethasone
Source text: (5) Reverse transcription-polymerase chain reaction (RT-PCR) quantitative real time PCR: Total RNA was isolated from cells and tissues, and cDNA was synthesized using a reverse transcriptase and was then reacted with cytokine primers to be analyzed, followed by PCR and real-time PCR. The RT-PCR products were subjected to electrophoresis using 1.5% agarose gel for analysis.
A. Experimental animal: 5-week-old male BALB/c mice obtained from. Daehan Biolink (Eumseong, Chungbuk) were adapted for 2 weeks in a clean animal breeding room (small animal room #2-302) at Hoseo University Safety Evaluation Center, set under environmental conditions: temperature of 22±3° C.; relative humidity of 50±20%; ventilation frequency of 10 to 15 times/hour, illumination for 12 hours; and illuminance of 150 Lux to 300 Lux, and then used in an experiment.
4 experimental animals were accommodated in each of polycarbonate cages (270×500×200 mm, KYERYONG SCIENCE). Feed (5053-Picolab Rodent 20, PMI Nutrition International) and drinking water (ultraviolet sterilized filtered water) were allowed to ingest freely. All procedures of the experiment were conducted after approved by the Ethics Committee of the Hoseo University Safety Evaluation Center (HTRC-15-19).
B. Dermatitis induction: Hairs on the back of each mouse were removed and maintained for 24 hours, and then 150 μl of a 1% 2,4-dinitrochlorobenzene(DNCB) solution (acetone: olive oil=3:1) was applied on the hair-removed site once a week for 3 weeks. After week 3, the DNCB solution was applied on the site twice a week for 3 weeks to induce atopic dermatitis.
C. Treatment: Mice were divided into 6 groups, and 0.5% DMSO was applied on animals as a control and 200 μl of each of 0.01 μM, 0.1 μM, and 1 μM test material was applied on animals as experimental groups for 3 weeks. 50 μl of 0.1% dexamethasone dissolved in a crude alcohol was applied on animals as a positive control at intervals of 2 days.
D. Biopsy: After application of the test material was completed, the dorsal skin of each experimental animal was incised under heart anesthesia, some of them were rapidly frozen using liquid nitrogen and stored at −70° C. before analysis, and the remainder was fixed with 10% neutral buffered formalin for 24 hours. The fixed tissues were prepared into slides through general tissue processing, and then subjected to hematoxylin & eosin (H&E) staining to measure the thickness of the epidermal layer. In addition, toluidine blue staining was performed to observe a quantitative change of mast cells. While the stained tissues were observed by an optical microscope, the thickness of the epidermal layer and the number of mast cells were obtained using an image analyzer (Olympus DP-21).
E. IgE level measurement: IgE concentration in blood was measured by (SHIBAYAGI, Japan) using serum collected when autopsy was performed. 50 μL of an IgE standard solution and the sample were placed in antibody-attached 96 wells and allowed to react for 2 hours, and then 50 μL of a biotin-conjugated anti-IgE antibody solution was added to each well and allowed to react for 2 hours. Thereafter, the resulting sample was reacted with a HRP-avidin solution for 1 hour and a chromogenic substrate (TBM) reagent for 20 minutes, and the reaction was stopped using a reaction stopper. Absorbance of the sample was measured at 450 nm using ELISA (Molecular devices Emax).

[H]/N=C(\N/C(=N/[H])Nc1ccc(Cl)cc1)NC(C)C [IPS-07004]
recombinant caspase-1 activity [1]: inhibits
caspase-1 activity in HMC-1 cells (caspase-1): inhibits
enteritis inhibitory activity (ratio of enteric weight to enteric length, wt/cm) (DSS-induced animal model; 10 mg/kg oral, compared to DSS control): superior enteritis inhibitory activity
melena (DSS-induced animal model; compared to the DSS-induced group, oral): significantly decreased
cytotoxicity (MTT-assay) (HaCat cells): no cytotoxicity

O=C([O-])CC(=O)NC12CC3CC(CC(C3)C1)C2.[Na+] [IPS-07003]
cytotoxicity (MTT-assay) (HMC-1 cells): did not exhibit cytotoxicity
TSLP secretion from mast cells [2]: significantly inhibited

COc1ccc(NS(=O)(=O)c2cccc(S(=O)(=O)c3cccc(S(=O)(=O)Nc4ccc(OC)cc4)c3)c2)cc1 [IPS-07002]
cytotoxicity (MTT-assay) (HMC-1 cells): did not exhibit cytotoxicity
TSLP secretion from mast cells [2]: significantly inhibited

C[C@@H]1C[C@H]2[C@@H]3CCC4=CC(=O)C=C[C@]4(C)[C@@]3(F)[C@@H](O)C[C@]2(C)[C@@]1(O)C(=O)CO [dexamethasone, reference compound]
epidermal thickness ([3]; DNCB group 87.1±13.0, normal 24.5±10.3): 39.9±9.4 μm
blood IgE level ([3]; DNCB group 790.0±151.8, no statistical significance): 703.8±86.5
